Data published in patent US9044389B2, “Isoxazoline derivatives as pesticides” (Novartis AG, priority 2008, dated 2015).

Test system: Rhipicephalus sanguineus nymphs
Experiment: Activity in vivo against Rhipicephalus sanguineus nymphs on Mongolian gerbils (spray application)
Details: tick number reduction vs placebo, Abbot's formula
Method: On day 0, gerbils are treated with the test compound at a given dose by spray application. On day +1 (+2), the animals are infested with nymphs of R. sanguineus. Ticks are left on the animals until full repletion. Seven days after infestation nymphs dropped off fully engorged are collected and counted. Efficacy in killing is expressed as a tick number reduction in comparison with a placebo treated group, using the Abbot's formula.

Cc1cc(C2=NOC(c3cc(Cl)cc(Cl)c3)(C(F)(F)F)C2)sc1C(=O)NCC(F)(F)F (centres unmarked) [Compound 1.8, 5-[5-(3,5-dichloro-phenyl)-5-trifluoromethyl-4,5-dihydro-isoxazol-3-yl]-3-methyl-thiophene-2-carboxylic acid (2,2,2-trifluoro-ethyl)-amide] was tested, and the “Efficacy in killing %” value (Dose 32 mg/kg) was 80%.

For O=C(NCC(F)(F)F)c1sc(C2=NOC(c3cc(Cl)cc(Cl)c3)(C(F)(F)F)C2)cc1-c1ccccc1 (centres unmarked) [Compound 1.21], the “Efficacy in killing %” value (Dose 32 mg/kg) was 98%.

For Cc1cc(C2=NOC(c3cc(Cl)cc(Cl)c3)(C(F)(F)F)C2)sc1C(=O)NCC(=O)NCC(F)(F)F (centres unmarked) [Compound 1.28, 5-[5-(3,5-dichloro-phenyl)-5-trifluoromethyl-4,5-dihydro-isoxazol-3-yl]-3-methyl-thiophene-2-carboxylic acid [(2,2,2-trifluoro-ethylcarbamoyl)-methyl]-amide], the “Efficacy in killing %” value (Dose 10 mg/kg) was 96%.

For Cc1cc(C2=NOC(c3cc(Cl)cc(Cl)c3)(C(F)(F)F)C2)sc1C(=O)NCC1CCCO1 (centres unmarked) [Compound 1.29], the “Efficacy in killing %” value (Dose 100 mg/kg) was 92%.

Cc1cc(C2=NOC(c3cc(Cl)cc(Cl)c3)(C(F)(F)F)C2)sc1C(=O)Nc1nc(C(F)(F)F)cs1 (centres unmarked) [Compound 1.31] was tested, and the “Efficacy in killing %” value (Dose 32 mg/kg) was 100%.

In the case of Cc1cc(C2=NOC(c3cc(Cl)cc(Cl)c3)(C(F)(F)F)C2)sc1C(=O)NCc1ccncc1 (centres unmarked) [Compound 1.32], the “Efficacy in killing %” value (Dose 100 mg/kg) is reported as 84%.

With Cc1cc(C2=NOC(c3cc(Cl)cc(Cl)c3)(C(F)(F)F)C2)sc1C(=O)Nc1cccnc1 (centres unmarked) [Compound 1.35] the “Efficacy in killing %” value (Dose 10 mg/kg) was 82%.

In the case of C#CCNC(=O)CNC(=O)c1sc(C2=NOC(c3cc(Cl)cc(Cl)c3)(C(F)(F)F)C2)cc1C (centres unmarked) [Compound 1.48], the “Efficacy in killing %” value (Dose 10 mg/kg) is reported as 95%.

For Cc1cc(C2=NOC(c3cc(Cl)cc(Cl)c3)(C(F)(F)F)C2)sc1C(=O)NCC(=O)NCC#N (centres unmarked) [Compound 1.49], the “Efficacy in killing %” value (Dose 3.2 mg/kg) was 85%.

For Cc1cc(C2=NOC(c3cc(Cl)c(Cl)c(Cl)c3)(C(F)(F)F)C2)sc1C(=O)NCC(=O)NCC(F)(F)F (centres unmarked) [Compound 2.4], the “Efficacy in killing %” value (Dose 10 mg/kg) was 90%.

With Cc1cc(C2=NOC(c3cc(Cl)c(F)c(Cl)c3)(C(F)(F)F)C2)sc1C(=O)NCC(=O)NCC(F)(F)F (centres unmarked) [Compound 2.5] the “Efficacy in killing %” value (Dose 10 mg/kg) was 90%.
